One data set concerns the target T1, LasR (Pseudomonas aeruginosa, UniProt P25084).
T1 construct: recombinant, pET28a, E. coli BL21(DE3), Ni-NTA
Description: EMSA, LasR binding to relA promoter DNA. It counts as biochemical. The following applies: AHL required for DNA binding; the AHL added in EMSA is not named, 3-O-C12-HSL is that of LasR expression; 37 °C. For orientation: In EMSA bound probe runs differently from free probe, usually more slowly.

Data set [1] has as its system RpoS (Pseudomonas aeruginosa PAO1). Description: SPR. The following applies: binding buffer not stated, SPR: PBS, temperature not stated.

T1 sequence (P25084 whole entry): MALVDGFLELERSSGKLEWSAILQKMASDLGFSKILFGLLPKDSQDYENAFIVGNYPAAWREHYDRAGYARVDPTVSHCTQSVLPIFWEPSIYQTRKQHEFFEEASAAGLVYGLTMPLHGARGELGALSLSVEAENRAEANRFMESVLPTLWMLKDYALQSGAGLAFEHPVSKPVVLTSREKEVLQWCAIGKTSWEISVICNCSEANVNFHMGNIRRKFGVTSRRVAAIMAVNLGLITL

As to `CCCCCCCCCC(=O)CC(=O)N[C@H]1CCOC1=O` [3-O-C12-HSL], the “EMSA, LasR binding to relA promoter DNA” value at LasR was “This binding depended on the presence of AHLs”. As for H2-T6SS promoter DNA (SPR), in data set [1], the dissociation constant Kd (as a rule, the equilibrium constant for the complex coming apart) came out at 87.6 nM. This counts as double-digit nanomolar.

The record behind these values is paper PMC10989899, “MomL inhibits bacterial antibiotic resistance through the starvation stringent response pathway” (mLife, 2022).
